From US6323204A, “Methods for using (2-imidazolin-2-ylamino) quinoxaline derivatives” (Allergan, priority 1998, dated 2001)
Like-named read-outs stand apart in the source and are kept apart here.

How the values were obtained:
[1] = mouse hexobarbital sleep time test (central nervous system anesthetization activity); type: in vivo; conditions: i.v., with hexobarbital 75 mg/kg i.p., dose which potentiates sleep time by 15 minutes
Protocol: (§1) Two (2) animal models were utilized to determine the central nervous system anesthetization activity of the quinoxaline derivative produced in Example 2.
(§2) The first of these animal models is identified generally as the mouse hexobarbital sleep time test. Briefly, the compound in question (in a dosage range of between 10 and 500 micrograms/kg, i.v.) and the barbiturate hexobarbital (75 mg/kg, i.p) are coadministered to mice weighing 20 to 22 grams. […] Sleep time is assessed as the time associated with the loss of the animal's reflex to right itself when placed on its back. The ED15 is estimated from dose-response data as the effective dose which potentiates sleep time by 15 minutes. The second animal model used is identified generally as the rat activity test. Briefly, rats weighing 140 to 160 grams are placed into an environmentally isolated activity monitor five (5) minutes following administration of the compound in question (in the range of 1 to 1000 micrograms/kg, i.v.). Horizontal activity, measured in counts is determined for five (5) minutes.
(§3) The final quinoxaline derivative produced in Example 2 was tested using both of the above-noted animal models. For comparison purposes, clonidine and its hydrophilic analog, p-amino-clonidine, were also tested using these animal models.

[2] = rat activity test (central nervous system anesthetization activity); type: in vivo; conditions: iv, read-out: ID50 Rat Activity
Protocol: as §1, §2, §3

[3] = in words; stated as known; cited from earlier work
[4] = in words
Protocol: The final quinoxaline derivative produced in Example 2, that is 5-bromo-6-(2-imidazolin-2-ylamino)quinoxaline, was tested for central nervous system anesthetization activity as follows.
as §1, §2
The final quinoxaline derivative produced in Example 2 was tested using both of the above-noted animal models. […]

Structure (SMILES) | ED15 Mouse Sleep-Time [1] | ED50 ([2]; Rattus norvegicus) | anesthetization activity (known) [3] | ED50 ([2]; rat, i.v., dose which decreases horizontal activity by 50%) | central nervous system anesthetization activity compared with the hydrophilic analog of clonidine (p-amino clonidine) [4] | central nervous system anesthetization activity ([4]; mouse sleep time and rat activity tests)
Clc1cccc(Cl)c1N=C1NCCN1 [Clonidine] | 0.075 mg/kg | 0.026 mg/kg | significant anesthetization activity |  |  | 
Nc1cc(Cl)c(NC2=NCCN2)c(Cl)c1 [p-Amino Clonidine] | > 0.5 mg/kg |  |  | 0.302 mg/kg |  | 
Brc1c(NC2=NCCN2)ccc2nccnc12 [Example 2, 5-bromo-6-(2-imidazolin-2-ylamino) quinoxaline] | 0.116 mg/kg | 0.077 mg/kg |  |  | substantially more of such activity | substantial central nervous system anesthetization activity
